The first test in a line: Inhibition IL3-dependent mitogenesis of mouse BaF/ERX cells by [3H]thymidine incorporation assay. Format: functional, cell-based. (In general: Uptake of a labelled nucleoside into DNA is a usual measure of proliferation.)
On to `COc1ccc(Cc2[nH]c(=N)n(C)c2Cc2ccc(O)cc2)cc1` [NAAMINE A], for which the IC50 (commonly the concentration that inhibits the measured activity by half) was 75 µM. That is a double-digit micromolar value.

Compound `COc1ccc(-c2nc(NC3=NC(=O)N(C)C3=O)sc2-c2ccc(OC)cc2)cc1` registered an IC50 of 10 µM.

The next test can be described thus: Inhibition EGF-dependent mitogenesis of mouse BaF/ERX cells by [3H]thymidine incorporation assay. Format: functional, cell-based.
As for `COc1ccc(-c2nc(N)sc2-c2ccc(OC)cc2)cc1`, the half-maximal inhibitory concentration (IC50) was above 75 µM.

`CN1C(=O)N=C(Nc2nc(-c3ccc(O)cc3)c(-c3ccc(O)cc3)s2)C1=O` displayed a concentration for half-maximal inhibition (IC50) of 5 µM.

In the case of `CN1C(=O)N=C(Nc2ncc(Cc3ccc(O)cc3)n2C)C1=O`, it took 4 µM to reach half-maximal inhibition (IC50).

Regarding `CN1C(=O)N=C(Nc2nc(Cc3ccc(OCc4ccccc4)cc3)c(Cc3ccc(O)cc3)s2)C1=O`, the IC50 is above 75 µM.

`Nc1nc(-c2ccccc2)c(Cc2ccc(O)cc2)s1`: half-maximal inhibition (IC50) was put at 50 µM.

For the compound `COc1ccc(Cc2nc(NC3=NC(=O)N(C)C3=O)sc2Cc2ccc(O)cc2)cc1`, it took 10 µM to reach half-maximal inhibition (IC50).

Compound `COc1ccc(Cc2[nH]c(=N)n(C)c2Cc2ccc(O)cc2)cc1` [NAAMINE A] displayed an IC50 of 75 µM.

In turn, `CN1C(=O)N=C(Nc2nc(-c3ccc(Cl)cc3)c(Cc3ccc(O)cc3)s2)C1=O` yielded an IC50 of 15 µM. Against the preceding compound, the IC50 is about 5-fold lower.

The compound `COc1ccc(Cc2nc(N)sc2Cc2ccc(O)cc2)cc1` displayed an IC50 of 18 µM.

In the case of `Nc1nc(-c2ccccc2)c(-c2ccccc2)s1`, the IC50 is above 75 µM.

As for `COc1ccc(-c2nc(NC(=O)[C@H](C)N)sc2-c2ccc(OC)cc2)cc1`, it took 12 µM to reach half-maximal inhibition (IC50).

The compound `CN1C(=O)N=C(Nc2nc(-c3ccccc3)c(-c3ccccc3)s2)C1=O` registered an IC50 above 75 µM.

In the case of `COc1ccc(-c2nc(NC(=O)NCc3ccccc3)sc2-c2ccc(OC)cc2)cc1`, the IC50 was above 75 µM.

In turn, `COc1ccc(-c2nc(NC3=NC(=O)N(C)C3=O)sc2-c2ccc(OC)cc2)cc1` yielded an IC50 of 50 µM.

`COc1ccc(Cc2nc(NC3=NC(=O)N(C)C3=O)n(C)c2Cc2ccc(O)cc2)cc1`: the IC50 worked out at 3 µM. Against the preceding compound, the IC50 is about 17-fold lower.

In the case of `Nc1nc(-c2ccc(O)cc2)c(-c2ccc(O)cc2)s1`, the IC50 was above 75 µM.

Compound `CN1C(=O)N=C(Nc2nc(-c3ccccc3)c(Cc3ccc(O)cc3)s2)C1=O` returned an IC50 of 25 µM.

The record behind these values is ChEMBL document CHEMBL1139958, “Synthesis and biological evaluation of analogues of the anti-tumor alkaloid naamidine A” (Bioorg Med Chem Lett, 2007).
